# In US4181797A, “1-N-(ω-amino-α-hydroxyalkanoyl) derivatives of 4'-deoxy-6'-N-methylkanamycin A” (Bristol-Myers Company, priority 1978, dated 1980):
# Key:
# [1] = tested on: kanamycin phosphotransferase Type-II; conditions: The Journal of Antibiotics, 27, 722-725 and 838-850 (1974); cited from earlier work
# [2] = tested on: E. coli A20732; assay: MIC in Mueller-Hinton agar, ANT(2") producer; format: cell-based; conditions: Escherichia coli; E. coli A20732; enzyme produced: ANT(2"); Mueller-Hinton agar; read-out: MIC
# Protocol: (§1) The Minimum Inhibitory Concentrations (MIC's) of BB-K311, amikacin and kanamycin A were determined in Mueller-Hinton agar against a number of kanamycin-sensitive and kanamycin-resistant strains of organisms.
# [3] = tested on: aminoglycoside-4'-adenylyltransferase [ANT(4')]; conditions: background statement; cited from earlier work
# [4] = tested on: B. brevis ATCC8185; assay: MIC in Mueller-Hinton agar, kanamycin-sensitive strain; format: cell-based; conditions: Brevibacillus brevis; B. brevis ATCC8185; enzyme produced: none; Mueller-Hinton agar; read-out: MIC
# Protocol: as §1
# [5] = tested on: S. aureus Smith; assay: as above; format: cell-based; conditions: Staphylococcus aureus; S. aureus Smith; enzyme produced: none; Mueller-Hinton agar; read-out: MIC
# Protocol: as §1
# [6] = tested on: S. marcescens A20019; assay: as above; format: cell-based; conditions: Serratia marcescens; S. marcescens A20019; enzyme produced: none; Mueller-Hinton agar; read-out: MIC
# Protocol: as §1
# [7] = tested on: E. cloacae A20464; assay: as above; format: cell-based; conditions: Enterobacter cloacae; E. cloacae A20464; enzyme produced: none; Mueller-Hinton agar; read-out: MIC
# Protocol: as §1
# [8] = tested on: K. pneumoniae A15130; assay: as above; format: cell-based; conditions: Klebsiella pneumoniae; K. pneumoniae A15130; enzyme produced: none; Mueller-Hinton agar; read-out: MIC
# Protocol: as §1
# [9] = tested on: P. mirabilis A9900; assay: as above; format: cell-based; conditions: Proteus mirabilis; P. mirabilis A9900; enzyme produced: none; Mueller-Hinton agar; read-out: MIC
# Protocol: as §1
# [10] = tested on: P. Morganii A20031; assay: as above; format: cell-based; conditions: Morganella morganii; P. Morganii A20031; enzyme produced: none; Mueller-Hinton agar; read-out: MIC
# Protocol: as §1
# [11] = tested on: E. coli A9632; assay: as above; format: cell-based; conditions: Escherichia coli; E. coli A9632; enzyme produced: none; Mueller-Hinton agar; read-out: MIC
# Protocol: as §1
# [12] = tested on: P. vulgaris A9526; assay: as above; format: cell-based; conditions: Proteus vulgaris; P. vulgaris A9526; enzyme produced: none; Mueller-Hinton agar; read-out: MIC
# Protocol: as §1
# [13] = tested on: P. stuartii A20615; assay: as above; format: cell-based; conditions: Providencia stuartii; P. stuartii A20615; enzyme produced: none; Mueller-Hinton agar; read-out: MIC
# Protocol: as §1
# [14] = tested on: E. coli A20895; assay: MIC in Mueller-Hinton agar, AAC(3)-I producer; format: cell-based; conditions: Escherichia coli; E. coli A20895; enzyme produced: AAC(3)-I; Mueller-Hinton agar; read-out: MIC
# Protocol: as §1
# [15] = tested on: aminoglycoside-6'-acetyltransferase [AAC(6')]; conditions: background statement; cited from earlier work
# [16] = tested on: E. cloacae A21006; assay: MIC in Mueller-Hinton agar, APH(3')-II producer; format: cell-based; conditions: Enterobacter cloacae; E. cloacae A21006; enzyme produced: APH(3')-II; Mueller-Hinton agar; read-out: MIC
# Protocol: as §1
# [17] = tested on: E. coli A20107; assay: MIC in Mueller-Hinton agar, APH(3')-II producer; format: cell-based; conditions: Escherichia coli; E. coli A20107; enzyme produced: APH(3')-II; Mueller-Hinton agar; read-out: MIC
# Protocol: as §1
# [18] = tested on: microorganisms containing aminoglycoside-inactivating enzymes; conditions: background statement; cited from earlier work
# [19] = tested on: S. aureus A22153; assay: MIC in Mueller-Hinton agar, AAC(6')-producing strain; format: cell-based; conditions: Staphylococcus aureus; S. aureus A22153; AAC(6')-producing; Mueller-Hinton agar; read-out: MIC
# Protocol: as §1
# [20] = tested on: S. epidermidis A22152; assay: as above; format: cell-based; conditions: Staphylococcus epidermidis, A22152
# Protocol: as §1
# [21] = tested on: E. cloacae HM-43; assay: as above; format: cell-based; conditions: Enterobacter cloacae, HM43; E. cloacae HM-43; AAC(6')-producing; Mueller-Hinton agar; read-out: MIC
# Protocol: as §1
# [22] = tested on: P. rettgeri HM-56; assay: as above; format: cell-based; conditions: Providencia rettgeri, HM56; P. rettgeri HM-56; AAC(6')-producing; Mueller-Hinton agar; read-out: MIC
# Protocol: as §1
# [23] = tested on: P. aeruginosa GN315; assay: as above; format: cell-based; conditions: Pseudomonas aeruginosa; P. aeruginosa GN315; AAC(6')-producing; Mueller-Hinton agar; read-out: MIC
# Protocol: as §1
# [24] = tested on: E. coli A2128; assay: as above; format: cell-based; conditions: Escherichia coli; E. coli A2128; AAC(6')-producing; Mueller-Hinton agar; read-out: MIC
# Protocol: as §1
# [25] = tested on: S. marcescens A21235; assay: as above; format: cell-based; conditions: Serratia marcescens; S. marcescens A21235; AAC(6')-producing; Mueller-Hinton agar; read-out: MIC
# Protocol: as §1
# [26] = tested on: S. aureus A22421; assay: as above; format: cell-based; conditions: Staphylococcus aureus; S. aureus A22421; AAC(6')-producing; Mueller-Hinton agar; read-out: MIC
# Protocol: as §1
# [27] = tested on: S. epidermidis A22211; assay: as above; format: cell-based; conditions: Staphylococcus epidermidis; S. epidermidis A22211; AAC(6')-producing; Mueller-Hinton agar; read-out: MIC
# Protocol: as §1
# [28] = tested on: S. marcescens A22382; assay: as above; format: cell-based; conditions: Serratia marcescens; S. marcescens A22382; AAC(6')-producing; Mueller-Hinton agar; read-out: MIC
# Protocol: as §1
# [29] = tested on: S. marcescens A21226; assay: as above; format: cell-based; conditions: Serratia marcescens; S. marcescens A21226; AAC(6')-producing; Mueller-Hinton agar; read-out: MIC
# Protocol: as §1
# [30] = tested on: S. marcescens A22288; assay: as above; format: cell-based; conditions: Serratia marcescens; S. marcescens A22288; AAC(6')-producing; Mueller-Hinton agar; read-out: MIC
# Protocol: as §1
# [31] = tested on: P. aeruginosa GN4925; assay: as above; format: cell-based; conditions: Pseudomonas aeruginosa; P. aeruginosa GN4925; AAC(6')-producing; Mueller-Hinton agar; read-out: MIC
# Protocol: as §1
# [32] = tested on: E. coli A20363; assay: MIC in Mueller-Hinton agar, APH(3')-I producer; format: cell-based; conditions: Escherichia coli; E. coli A20363; enzyme produced: APH(3')-I; Mueller-Hinton agar; read-out: MIC
# Protocol: as §1
# [33] = tested on: E. cloacae A20364; assay: MIC in Mueller-Hinton agar, APH(3')-I producer; format: cell-based; conditions: Enterobacter cloacae; E. cloacae A20364; enzyme produced: APH(3')-I; Mueller-Hinton agar; read-out: MIC
# Protocol: as §1
# [34] = tested on: S. epidermidis A22033; assay: MIC in Mueller-Hinton agar, ANT(4')-producing strain; format: cell-based; conditions: Staphylococcus epidermidis; S. epidermidis A22033; ANT(4')-producing; Mueller-Hinton agar; read-out: MIC
# Protocol: as §1
# [35] = tested on: B. brevis IFO 12334; assay: as above; format: cell-based; conditions: Brevibacillus brevis, IFO12334; B. brevis IFO 12334; ANT(4')-producing; Mueller-Hinton agar; read-out: MIC
# Protocol: as §1
# [36] = tested on: S. aureus A22054; assay: as above; format: cell-based; conditions: Staphylococcus aureus; S. aureus A22054; ANT(4')-producing; Mueller-Hinton agar; read-out: MIC
# Protocol: as §1
structure (smiles),measurement,setting,value
NCC1CC(O)C(O)C(OC2C(N)CC(N)C(OC3OC(CO)C(O)C(N)C3O)C2O)O1 (stereo not drawn) [4'-deoxykanamycin],resistance to kanamycin phosphotransferase Type-II,[1],resistance to kanamycin phosphotransferase Type-II
"NCC[C@H](O)C(=O)N[C@@H]1C[C@H](N)[C@@H](O[C@H]2O[C@H](CN)[C@@H](O)[C@H](O)[C@H]2O)[C@H](O)[C@H]1O[C@H]1O[C@H](CO)[C@@H](O)[C@H](N)[C@H]1O [Amikacin, 1-N-[L-(-)-γ-amino-α-hydroxybutyryl]kanamycin A]",MIC,[2],0.8 µg/mL
same,susceptibility to ANT(4'),[3],still susceptible
same,MIC,[4],0.8 µg/mL
same,MIC,[5],0.8 µg/mL
same,MIC,[6],1.6 µg/mL
same,MIC,[7],3.1 µg/mL
same,MIC,[8],1.6 µg/mL
same,MIC,[9],1.6 µg/mL
same,MIC,[10],1.6 µg/mL
same,MIC,[11],0.8 µg/mL
same,MIC,[12],0.8 µg/mL
same,MIC,[13],1.6 µg/mL
same,MIC,[14],0.8 µg/mL
same,susceptibility to AAC(6'),[15],still susceptible
same,MIC,[16],1.6 µg/mL
same,MIC,[17],1.6 µg/mL
same,effectiveness against enzyme-containing microorganisms,[18],effective against a wide variety of microorganisms containing aminoglycoside-inactivating enzymes
same,MIC,[19],12.5 µg/mL
same,MIC,[20],3.1 µg/mL
same,MIC,[21],> 100 µg/mL
same,MIC,[22],> 100 µg/mL
same,MIC,[23],50 µg/mL
same,MIC,[24],3.1 µg/mL
same,MIC,[25],25 µg/mL
same,MIC,[26],12.5 µg/mL
same,MIC,[27],12.5 µg/mL
same,MIC,[28],12.5 µg/mL
same,MIC,[29],6.3 µg/mL
same,MIC,[30],6.3 µg/mL
same,MIC,[31],12.5 µg/mL
same,MIC,[32],1.6 µg/mL
same,MIC,[33],3.1 µg/mL
same,MIC,[34],6.3 µg/mL
same,MIC,[35],6.3 µg/mL
same,MIC,[36],6.3 µg/mL
